Legend:
human D2 receptor = target: T1, human D2 receptor (Homo sapiens, UniProt P14416); assay: Binding assay for D2 receptor using [3H] spiperone; settings: test compound 100 nM, cell membrane expressing human D2 receptor, read-out: Binding inhibitory rate (%) for D2 receptor (100 nM)
T1 construct: expressed in transfected cells
Procedure: In general, there is clinically some correlation between antipsychotic action and antagonistic action for dopamine D2 receptor. The experimental method used herein is a binding assay for D2 receptor which is one of the tests evaluating D2 receptor action in vitro, According to the known method (e.g. Japan, J. Pharmacol., 53, 321-329 (1990)), the above-captioned experiment was carried out using [3H] spiperone, i.e., the binding amount of [3H] spiperone to the preparation cell membrane expressing human D2 receptor was measured, and then the binding inhibitory rate by the test compound (100 nM) was measured/calculated.

[1] = Cataleptic action (pole test); settings: in vivo, ip; male rat, intraperitoneal, one hour after administration; dose inducing catalepsy in 50% of the rats
Procedure: The cataleptic action which is a typical central nervous system side-effect of antipsychotic agents in the clinical study was evaluated as follows. The test substance was intraperitoneally administered to a male rat. One hour later, the rat was made to hold on a pole three times which is horizontally set at a height of 9 cm. When the rat retained the unnatural stretched pose for 30 seconds even one time out of three times, the rat was evaluated as cataleptic positive. The dose for inducing 50% the rats to the catalepsy: ED50 value was calculated.

[2] = system: methamphetamine-induced movement of the rat; assay: Anti-methamphetamine test (movement measured with Supermex); type: in vivo; settings: male rat, intraperitoneal, 30 min before methamphetamine 1 mg/kg i.p.; movement measured for 90 minutes; dose for 50% inhibition; read-out: Antidopaminergic action ED50
Procedure: The anti-methamphetamine test which is a typical in vivo test for evaluating antipsychotic action in the clinical study was carried out as follows. The test substance was intraperitoneally administered to a male rat, and 30 minutes later methamphetamine (1 mg/kg) was intraperitoneally administered to the male rat. Ten minutes after completing the administrations, the movement of the rat was measured with Supermex for 90 minutes, and the dose for 50% inhibition: ED50 value was calculated.

T1 sequence (P14416 whole entry): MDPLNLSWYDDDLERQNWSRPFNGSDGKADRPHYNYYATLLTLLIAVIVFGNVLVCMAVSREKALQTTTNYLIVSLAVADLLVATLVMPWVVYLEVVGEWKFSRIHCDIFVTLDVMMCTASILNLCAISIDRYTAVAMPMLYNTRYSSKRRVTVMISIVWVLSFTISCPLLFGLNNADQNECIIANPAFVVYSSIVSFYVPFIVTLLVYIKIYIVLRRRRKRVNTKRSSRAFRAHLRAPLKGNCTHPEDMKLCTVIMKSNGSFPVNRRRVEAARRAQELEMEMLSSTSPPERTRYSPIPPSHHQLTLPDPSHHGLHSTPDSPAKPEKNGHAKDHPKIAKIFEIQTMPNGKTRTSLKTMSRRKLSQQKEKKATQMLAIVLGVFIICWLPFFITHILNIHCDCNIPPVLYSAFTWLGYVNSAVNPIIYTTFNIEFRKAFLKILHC

| Structure (SMILES) | inhibition at 0.1 µM (human D2 receptor) [%] | ED50 at 1 h [1] [mg/kg] | ED50 [2] [mg/kg] |
| --- | --- | --- | --- |
| O=C(NC[C@@H]1CCCC[C@H]1CN1CCC(c2noc3cc(F)ccc23)CC1)c1ccc2c(c1)OCO2 [Example 221] | 93 | – | – |
| O=C(/C=C/c1ccccc1[N+](=O)[O-])NC[C@@H]1CCCC[C@H]1CN1CCC(c2n[nH]c3cc(F)ccc23)CC1 [Example 239] | 95 | – | – |
| COc1ccccc1/C=C/C(=O)NC[C@H]1C[C@@H]1CN1CCN(c2nsc3ccccc23)CC1 [Example 139] | 91 | – | – |
| O=C(/C=C/c1ccc2c(c1)OCO2)NC[C@@H]1CCCC[C@H]1CN1CCN(c2nsc3cc(F)ccc23)CC1 [Example 84] | 95 | – | – |
| COc1ccc(OC)c(S(=O)(=O)NC[C@@H]2CCCC[C@H]2CN2CCC(c3n[nH]c4cc(F)ccc34)CC2)c1 [Example 241] | 95 | – | – |
| C=C1[C@H](CNC(=O)c2ccc3c(c2)OCO3)[C@H]1CN1CCC(c2noc3cc(F)ccc23)CC1 [Example 192] | 90 | – | – |
| O=C(NC[C@@H]1CCCC[C@H]1CN1CCC(c2n[nH]c3cc(F)ccc23)CC1)c1ccc2c(c1)OCO2 [Example 242] | 95 | – | – |
| O=C(/C=C/c1cccc(Cl)c1)NC[C@@H]1CCCC[C@H]1CN1CCC(c2noc3cc(F)ccc23)CC1 [Example 200] | 92 | > 7.2 | 0.24 |
| O=C(Cc1ccc(Cl)cc1)NC[C@@H]1CCCC[C@H]1CN1CCC(c2n[nH]c3cc(F)ccc23)CC1 [Example 243] | 94 | – | – |
| O=C1C2C3CCC(C3)C2C(=O)N1C[C@@H]1CCCC[C@H]1CN1CCN(c2nsc3cc(F)ccc23)CC1 (stereo partly drawn) [Example 85] | 91 | – | – |
| C=C1[C@H](CNC(=O)/C=C/c2ccccc2C)[C@H]1CN1CCC(c2noc3cc(F)ccc23)CC1 [Example 185] | 92 | – | – |
| C=C1[C@H](CNS(=O)(=O)c2cccc(-c3ccccc3)c2)[C@H]1CN1CCC(c2noc3cc(F)ccc23)CC1 [Example 190] | 92 | – | – |
| O=C1C2C3CCC(C3)C2C(=O)N1C[C@@H]1CCCC[C@H]1CN1CCC(c2noc3ccc(F)cc23)CC1 (stereo partly drawn) [Example 225] | 94 | – | – |
| O=C1C2C3CCC(C3)C2C(=O)N1C[C@@H]1CCCC[C@H]1CN1CCC(c2noc3ccccc23)CC1 (stereo partly drawn) [Example 223] | 94 | – | – |
| O=S(=O)(NC[C@@H]1CCCC[C@H]1CN1CCC(c2n[nH]c3cc(F)ccc23)CC1)c1cccc(-c2ccccc2)c1 [Example 240] | 85 | – | – |
| COc1ccc(OC)c(S(=O)(=O)NC[C@H]2CCC[C@@H]2CN2CCN(c3nsc4ccccc34)CC2)c1 [Example 101] | 94 | – | – |
| O=C(/C=C/c1ccc2c(c1)OCO2)NC[C@@H]1CCCC[C@H]1CN1CCC(c2noc3cc(F)ccc23)CC1 [Example 222] | 93 | – | – |

Further lines, with some results ahead:

| inhibition at 0.1 µM (human D2 receptor) [%] | Structure (SMILES) | ED50 at 1 h [1] [mg/kg] | ED50 [2] [mg/kg] |
| --- | --- | --- | --- |
| 90 | O=C(/C=C/c1ccccc1[N+](=O)[O-])NC[C@H]1CCCC[C@@H]1CN1CCN(c2nsc3ccccc23)CC1 [Example 33] | – | – |
| 91 | O=C(/C=C/c1ccccc1F)NC[C@H]1CCCC[C@@H]1CN1CCN(c2nsc3ccccc23)CC1 [Example 44] | – | – |
| 91 | COc1cccc(/C=C/C(=O)NC[C@H]2CCCC[C@H]2CN2CCN(c3nsc4ccccc34)CC2)c1OC [Example 62] | – | – |
| 95 | O=C(NC[C@H]1CCC[C@@H]1CN1CCN(c2nsc3ccccc23)CC1)c1ccc2c(c1)OCO2 [Example 102] | – | – |
| 92 | O=C(/C=C/c1ccccc1[N+](=O)[O-])NC[C@H]1CCCC[C@H]1CN1CCN(c2nsc3ccccc23)CC1 [Example 64] | – | – |
| 91 | Cc1ccccc1/C=C/C(=O)NC[C@H]1CCCC[C@H]1CN1CCN(c2nsc3ccccc23)CC1 [Example 60] | – | – |
| 90 | O=C(Cc1ccc(Cl)cc1)NC[C@H]1CCCC[C@@H]1CN1CCN(c2nsc3ccccc23)CC1 [Example 37] | – | – |
| 91 | O=S(=O)(NC[C@H]1CCC[C@@H]1CN1CCN(c2nsc3ccccc23)CC1)c1cccc(-c2ccccc2)c1 [Example 100] | – | – |
| 92 | Cc1cccc(/C=C/C(=O)NC[C@@H]2CCCC[C@@H]2CN2CCN(c3nsc4ccccc34)CC2)c1 [Example 13] | – | – |
| 94 | O=C(/C=C/c1ccccc1[N+](=O)[O-])NC[C@@H]1CCCC[C@@H]1CN1CCN(c2nsc3ccccc23)CC1 [Example 16] | – | – |
| 92 | O=C(NC[C@H]1CCCC[C@@H]1CN1CCN(c2nsc3ccccc23)CC1)c1ccc2c(c1)OCO2 [Example 36] | – | – |
| 95 | Cc1cccc(/C=C/C(=O)NC[C@H]2C[C@@H]2CN2CCN(c3nsc4ccccc34)CC2)c1 [Example 137] | – | – |
| 90 | O=C(NC[C@H]1CCCC[C@H]1CN1CCN(c2nsc3ccccc23)CC1)c1ccc2c(c1)OCO2 [Example 67] | – | – |
| 94 | O=C(NC[C@@H]1CCCC[C@H]1CN1CCN(c2nsc3cc(F)ccc23)CC1)c1ccc2c(c1)OCO2 [Example 82] | – | – |
| 91 | COc1ccccc1/C=C/C(=O)NC[C@H]1CCCC[C@@H]1CN1CCN(c2nsc3ccccc23)CC1 [Example 32] | – | – |
| 91 | O=C(/C=C/c1ccc2c(c1)OCO2)NC[C@@H]1CCCC[C@@H]1CN1CCN(c2nsc3ccccc23)CC1 [Example 21] | – | – |
| 93 | COc1ccccc1/C=C/C(=O)NC[C@@H]1CCCC[C@@H]1CN1CCN(c2nsc3ccccc23)CC1 [Example 15] | – | – |
| 91 | O=C(/C=C/c1ccc2c(c1)OCO2)NC[C@H]1CCCC[C@H]1CN1CCN(c2nsc3ccccc23)CC1 [Example 69] | – | – |
| 92 | O=C(/C=C/c1ccc2c(c1)OCO2)NC[C@H]1CCC[C@@H]1CN1CCN(c2nsc3ccccc23)CC1 [Example 104] | – | – |
| 92 | COc1cccc(/C=C/C(=O)NC[C@@H]2CCCC[C@@H]2CN2CCN(c3nsc4ccccc34)CC2)c1OC [Example 14] | – | – |
| 93 | O=C(NC[C@H]1CCC[C@@H]1CN1CCN(c2nsc3ccccc23)CC1)c1cccc(Oc2ccccc2)c1 [Example 87] | > 135 | 4.5 |
